This is an account of results in patent publication US6420137B1 (American Home Products Corporation, priority 1998, dated 2002).

Test [1] concerns HNT2RS. In words: GTP sensitivity of [3H]NT binding, CHO-K1 membranes stably expressing HNT2RS. On the set-up: species or system human. How it is done: GTP sensitivity. These radioligand binding assays were performed in 96-well microtiter plates using 1×binding buffer (50 mM HEPES, pH 7.4, 10 mM MgCl2, 0.4% BSA, pH 7.4) containing protease inhibitors (5 μg/ml leupeptin, 5 μg/ml aprotinin, 100 μg/ml bacitracin, and 100 μg/ml benzamidine). […] Wells A1-6 were repeated for each membrane preparation to be tested for GTP sensitivity. Binding reactions were initiated by adding 5-100 μg of membrane protein in a 170 μl volume. Final reaction volume was 200 μl/well. The microtiter plate was placed on a rotary shaker at 200 rpm and incubated at room temperature for 2 hours. Free radioligand was separated from bound ligand by rapid filtration through a glass fiber (GF/C) filter plate pretreated with 0.3% polyethyleneimine using a Packard cell harvester. The filter plates were then washed several times with cold (4° C.) binding buffer lacking BSA. After the filter plates were dried in a 37° C. incubator for 2 hours, 25 μl Microscint scintillation fluid (Packard) was added to each well and the plate was counted in a Packard Top Count scintillation counter.

The next test has as its target T1, HNT2R (Homo sapiens, UniProt O95665).
T1 construct: The HindIII and XbaI digested full-length receptor cDNAs were inserted into the pRC/CMV (Invitrogen) vector; expressed in transfected cells; host or cells: GH4C1 (rat pituitary) membranes for A6 and A8; CHO-K1 membranes for A9; SK-N-MC whole cells for A11
Kind of test: GTP sensitivity of [3H]NT binding, CHO-K1 membranes stably expressing HNT2R.

The subject of test [2] is neurotensin receptor subtypes NT1R, NT2R, NT3R. As to conditions: cited from earlier work.
Test [3] has as its system HNT2RS. Kind of test: Competition of [3H]neurotensin binding, membranes from GH4C1 cells stably expressing HNT2RS. The arrangement: species or system human. As to conditions: HNT2RS (short form), FIG. 1B.
Description: (§2) A: Binding to membranes from GH4C1 cells stably expressing HNT2RL. B: Binding to membranes from GH4C1 cells stably expressing HNT2RS.
The adherent cells were removed from the plates with PBS and 2 mM EDTA, pelleted by centrifugation at 1,500×g for 10 minutes at 4° C., and resuspended in ice cold homogenization buffer (1 mM sodium bicarbonate, 1 mM EDTA, 1 mM EGTA, pH 7.2) containing 1×protease inhibitors (5 μg/ml leupeptin, 5 μug/ml aprotinin, 100 μg/ml bacitracin, and 100 μg/ml benzamidine). After 10 minutes on ice, the cells were lysed by dounce homogenizing for 20 strokes in a glass/glass homogenizer. The cell lysate was centrifuged at 1,500×g for 10 minutes at 4° C. to remove the nuclei and cell debris and the supernatant containing the cell membranes were harvested by centrifugation at 20,000×g for 30 minutes at 4° C. The membrane pellet was resuspended in 1×homogenization buffer containing 1×protease inhibitors and once again pelleted. The membrane pellet was then resuspended at 1-5 mg/ml in 25 mM Tris, pH 7.4 and either directly used in binding assays or frozen (−80° C.) in small aliquots for future use.
Radioligand binding assays: competition binding. All radioligand binding assays were performed in 96-well microtiter plates using 1×binding buffer (50 mM HEPES, pH 7.4, 10 mM MgCl2, 0.2% BSA, pH 7.4) containing protease inhibitors (5 μg/ml leupeptin, 5 μmg/ml aprotinin, 100 μg/ml bacitracin, and 100 μg/ml benzamidine). […] Binding reactions were initiated by adding 5-100 μg of membrane protein in a 170 μl volume. Final reaction volume was 200 μl/well.
The microtiter plate was placed on a rotary shaker at 200 rpm and incubated at room temperature for 2 hours. Free radioligand was separated from bound ligand by rapid filtration through a glass fiber (GF/C) filter plate pretreated with 0.3% polyethyleneimine for 30 minutes) using a Packard cell harvester. […] After the filter plates were dried in a 37° C. incubator for 2 hours, 25 μl Microscint scintillation fluid (Packard) was added to each well and the plate was counted in a Packard Top Count scintillation counter.
A further test addresses T2, HNT2RL (Homo sapiens, UniProt O95665).
T2 construct: The HindIII and XbaI digested full-length receptor cDNAs were inserted into the pRC/CMV (Invitrogen) vector; expressed in transfected cells; host or cells: GH4C1 (rat pituitary) membranes for A6 and A8; CHO-K1 membranes for A9; SK-N-MC whole cells for A11
In words: Competition of [3H]neurotensin binding, membranes from GH4C1 cells stably expressing HNT2RL. To be noted: HNT2RL (long form), FIG. 1A.

The subject of another test is fasted ob/ob males. In words: Effect of AcNT(8-13) on appetite / food consumption in mouse models of obesity. It is filed as in vivo. An excerpt:
(§1) Obesity is associated with decreased metabolic energy expenditure and increased metabolic efficiency. Increasing metabolic energy expenditure (thermogenesis) is a desirable characteristic of anti-obesity targets.

Test [4] in a line: Acute metabolic responses to AcNT(8-13): lipolysis, oxygen consumption. It is filed as in vivo. To be noted: administered acutely.
Description: as §1

For another test, the target named is H1-histamine receptors (Homo sapiens, UniProt P35367). As to conditions: cited from earlier work.

Where a name gives a salt, the structure may show the parent alone.

T1 sequence (O95665 whole entry): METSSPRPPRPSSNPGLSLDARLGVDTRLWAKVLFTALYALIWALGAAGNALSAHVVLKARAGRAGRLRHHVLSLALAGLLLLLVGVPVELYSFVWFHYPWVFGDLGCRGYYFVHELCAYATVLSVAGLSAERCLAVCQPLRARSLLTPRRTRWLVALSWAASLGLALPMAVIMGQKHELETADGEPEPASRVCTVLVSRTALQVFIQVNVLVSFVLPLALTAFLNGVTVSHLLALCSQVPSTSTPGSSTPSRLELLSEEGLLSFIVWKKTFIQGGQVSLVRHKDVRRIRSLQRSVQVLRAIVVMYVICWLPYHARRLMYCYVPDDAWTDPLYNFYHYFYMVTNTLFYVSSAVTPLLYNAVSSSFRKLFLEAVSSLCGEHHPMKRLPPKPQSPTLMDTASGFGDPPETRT
T2 sequence (O95665 whole entry): as above
Chain of H1-histamine receptors (P35367 whole entry): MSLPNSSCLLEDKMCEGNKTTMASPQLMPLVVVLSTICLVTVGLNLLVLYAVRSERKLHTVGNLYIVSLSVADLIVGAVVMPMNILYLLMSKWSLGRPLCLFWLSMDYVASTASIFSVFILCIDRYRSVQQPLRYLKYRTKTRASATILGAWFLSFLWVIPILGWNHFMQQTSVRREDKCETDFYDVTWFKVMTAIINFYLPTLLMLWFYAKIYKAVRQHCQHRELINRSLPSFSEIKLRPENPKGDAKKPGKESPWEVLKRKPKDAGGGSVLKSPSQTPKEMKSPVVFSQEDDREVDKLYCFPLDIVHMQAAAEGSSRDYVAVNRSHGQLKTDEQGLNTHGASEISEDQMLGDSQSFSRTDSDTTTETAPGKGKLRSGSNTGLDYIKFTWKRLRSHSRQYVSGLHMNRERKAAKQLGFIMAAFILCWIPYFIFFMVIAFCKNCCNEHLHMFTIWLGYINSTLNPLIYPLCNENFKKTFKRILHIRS
Description for HNT2RL: as §2
The adherent cells were removed from the plates with PBS and 2 mM EDTA, pelleted by centrifugation at 1,500×g for 10 minutes at 4° C., and resuspended in ice cold homogenization buffer (1 mM sodium bicarbonate, 1 mM EDTA, 1 mM EGTA, pH 7.2) containing 1×protease inhibitors (5 μg/ml leupeptin, 5 μug/ml aprotinin, 100 μg/ml bacitracin, and 100 μg/ml benzamidine). After 10 minutes on ice, the cells were lysed by dounce homogenizing for 20 strokes in a glass/glass homogenizer. The cell lysate was centrifuged at 1,500×g for 10 minutes at 4° C. to remove the nuclei and cell debris and the supernatant containing the cell membranes were harvested by centrifugation at 20,000×g for 30 minutes at 4° C. The membrane pellet was resuspended in 1×homogenization buffer containing 1×protease inhibitors and once again pelleted. […]
The microtiter plate was placed on a rotary shaker at 200 rpm and incubated at room temperature for 2 hours. […] After the filter plates were dried in a 37° C. incubator for 2 hours, 25 μl Microscint scintillation fluid (Packard) was added to each well and the plate was counted in a Packard Top Count scintillation counter.

Regarding `Nc1nc2c(ncn2[C@@H]2O[C@H](COP(=O)(O)OP(=O)(O)OP(O)(O)=S)[C@@H](O)[C@H]2O)c(=O)[nH]1` [GTPγS], the “% Decrease in [3H]NT Bound in Presence of 100 μM GTPγS” value was determined as 35.3% in the test with HNT2RS [1] and 51.5% on HNT2R.

Take `COc1cccc(OC)c1-c1cc(C(=O)NC2(C(=O)O)C3CC4CC(C3)CC2C4)nn1-c1ccc(C(=O)N(C)CCCN(C)C)cc1C(C)C.Cl` (centres unmarked) [SR142948]: in test [2], the “affinity for the NT1R and NT2R subtypes” value was “comparable affinity”.

Regarding `COc1cccc(OC)c1-c1cc(C(=O)NC2(C(=O)O)C3CC4CC(C3)CC2C4)nn1-c1ccnc2cc(Cl)ccc12` (centres unmarked) [SR48692], the “competition of [3H]neurotensin binding” value in the test on HNT2RS [3] and at HNT2RL was “competed at a concentration about two orders of magnitude higher” each time.

“[^3H]NT: tritiated neurotensin radioligand (New England Nuclear, 100 Ci/mmol)”: in the test with HNT2RS [1], the “Specific [3H]NT Bound in Presence of 100 μM GTPγS” value was 451 cpm. Further, in the test on HNT2RS [1] (no GTPγS), the “Specific [3H]NT Bound” value is recorded as 697 cpm.

For “AcNT(8-13): N-acetylated form of the carboxyl terminal 6 amino acids of neurotensin (8-13)”, the food consumption entry in the test with fasted ob/ob males (AcNT(8-13) i.p., fasted ob/ob males) was “biphasic suppression of food consumption”. Besides, the “suppression of food consumption” value with fasted ob/ob males (administered acutely) is 40-60%. In addition, the “competition of [3H]neurotensin binding” value with HNT2RS [3] is “equally well”. In addition, the “binding affinity compared with the 13 amino acid form of neurotensin” value in test [2] is reported as “identical”. Further, in test [4], the “lipolytic effects (NEFAs and glycerol)” value is “elevated NEFAs and glycerol”; the oxygen consumption result is listed as “increased”.

“NT(9-13): neurotensin (9-13) fragment, a neurotensin receptor binding partner”: in the test with HNT2RS [3], the “competition of [3H]neurotensin binding” value was “bound with lower affinity”.

Regarding `c1ccncc1` [Pyridine, pyridine], the “block of AcNT(8-13)-mediated appetite suppression” value in the test on fasted ob/ob males (antihistamine at 1 mg/kg) is “did not block”. Moreover, the “binding to H1-histamine receptors” value at H1-histamine receptors was “high affinity binding”. For the same compound, in test [2], the “binding to NTR subtypes” value is given as “not to any NTR subtypes”.

`C[C@@H]1CN([C@H]2CC[C@](C#N)(c3ccc(F)cc3)CC2)CC[C@]1(C(=O)O)c1ccccc1` [levocabastine, (−)-{3S-[1(cis)-3α4β]}-1-{4-cyano-4-(4-fluoro-phenyl)-cyclohexyl)}-3-methyl-4-phenyl-4-piperidene-carboxylic acid monohydrochloride]: the “reversal of the suppression of food intake mediated by AcNT(8-13)” value in the test on fasted ob/ob males (animals pretreated with antagonist, 50 μg/kg AcNT(8-13)) was “completely reversed”. For the same compound, in test [2], the “binding to the NT2R subtype” value is “high affinity”; the “selectivity for the NT2R over the NT1R and NT3R subtypes” value is given as 1000 fold.
